These results are taken from ChEMBL document CHEMBL3608264, “Novel antibacterial active quinolone-fluoroquinolone conjugates and 2D-QSAR studies” (2015).

One assay has as its system Staphylococcus aureus. Kind of assay: Antimicrobial activity against Staphylococcus aureus ATCC 25923 incubated for 18 hrs by agar dilution method. The assay is classed as functional. Conditions: ATCC 25923, 18 h. On the technique in general: In agar dilution, organisms are placed on agar that contains the substance at set levels.
The next assay concerns Streptococcus pyogenes. Put plainly: Antimicrobial activity against Streptococcus pyogenes ATCC 19615 incubated for 18 hrs by agar dilution method. The assay is classed as functional. Conditions: ATCC 19615, 18 h.
For a further assay, the system named is Salmonella typhimurium. Put plainly: Antimicrobial activity against Salmonella typhimurium ATCC 19430 incubated for 18 hrs by agar dilution method. The assay is classed as functional, Salmonella enterica subsp. enterica serovar Typhimurium. Particulars: Salmonella enterica, ATCC 19430, 18 h.
For another assay, the system named is Pseudomonas aeruginosa. Put plainly: Antimicrobial activity against Pseudomonas aeruginosa ATCC 27853 incubated for 18 hrs by agar dilution method. Conditions: ATCC 27853, 18 h. The assay is classed as functional.

The structures appear in SMILES notation. Values after ≈ are worked out from the molar mass of the structure shown.

With `CC[C@H](C)[C@H](NC(=O)c1cn(CC)c2nc(C)ccc2c1=O)C(=O)N1CCN(c2cc3c(cc2F)c(=O)c(C(=O)O)cn3CC)CC1`, the MIC with Staphylococcus aureus, with Streptococcus pyogenes, in the assay with Salmonella typhimurium and in the assay with Pseudomonas aeruginosa was 1930 µM (≈ 1250 µg/mL) in each case.
`CCn1cc(C(=O)N[C@@H](Cc2ccccc2)C(=O)N2CCN(c3cc4c(cc3F)c(=O)c(C(=O)O)cn4C3CC3)CC2)c(=O)c2ccc(C)nc21`: the MIC in the assay with Staphylococcus aureus, with Streptococcus pyogenes, against Salmonella typhimurium and in the assay on Pseudomonas aeruginosa was 1800 µM (≈ 1250 µg/mL) each time.
As to `CC[C@H](C)[C@H](NC(=O)c1cn(CC)c2nc(C)ccc2c1=O)C(=O)N1CCN(c2cc3c(cc2F)c(=O)c(C(=O)O)cn3C2CC2)CC1`, the MIC with Staphylococcus aureus, against Streptococcus pyogenes, against Salmonella typhimurium and against Pseudomonas aeruginosa was 1900 µM (≈ 1250 µg/mL) in each case.
As to `CCn1cc(C(=O)O)c(=O)c2cc(F)c(N3CCN(C(=O)[C@H](Cc4ccccc4)NC(=O)c4cn(CC)c5nc(C)ccc5c4=O)CC3)cc21`, the MIC – broadly, the smallest concentration in the dilution series that meets the test's criterion for growth inhibition – with Staphylococcus aureus is 28.6 µM (≈ 19.5 µg/mL); with Streptococcus pyogenes, 459 µM (≈ 313 µg/mL); in the assay with Salmonella typhimurium, 115 µM (≈ 78.1 µg/mL); against Pseudomonas aeruginosa it was 918 µM (≈ 625 µg/mL).
Taken in the same sequence, the figures for `CC[C@H](C)[C@H](NC(=O)c1cn(CC)c2cc3c(cc2c1=O)OCO3)C(=O)N1CCN(c2cc3c(cc2F)c(=O)c(C(=O)O)cn3CC)CC1` were 1850 µM (≈ 1250 µg/mL), 1850 µM (≈ 1250 µg/mL), 1850 µM (≈ 1250 µg/mL) and 462 µM (≈ 313 µg/mL).
For the compound `CCn1cc(C(=O)N[C@@H](Cc2c[nH]c3ccccc23)C(=O)N2CCN(c3cc4c(cc3F)c(=O)c(C(=O)O)cn4C3CC3)CC2)c(=O)c2cc3c(cc21)OCO3`, the MIC with Staphylococcus aureus turned out to be 51.3 µM (≈ 39 µg/mL); in the assay with Streptococcus pyogenes it was 411 µM (≈ 313 µg/mL); in the assay with Salmonella typhimurium, 25.6 µM (≈ 19.5 µg/mL); with Pseudomonas aeruginosa, 411 µM (≈ 313 µg/mL).
`CCn1cc(C(=O)O)c(=O)c2cc3c(cc21)OCO3` [OXOLINIC ACID]: the MIC against Staphylococcus aureus is 3910 µM (≈ 1020 µg/mL); with Streptococcus pyogenes, 1960 µM (≈ 511 µg/mL); against Salmonella typhimurium, 7.5 µM (≈ 1.96 µg/mL); against Pseudomonas aeruginosa, 15 µM (≈ 3.92 µg/mL).
Regarding `CCn1cc(C(=O)O)c(=O)c2cc(F)c(N3CCN(C(=O)CNC(=O)c4cn(CC)c5cc6c(cc5c4=O)OCO6)CC3)cc21`, in the assay on Salmonella typhimurium, the MIC worked out at 2020 µM (≈ 1250 µg/mL).
With `CCn1cc(C(=O)NCC(=O)N2CCN(c3cc4c(cc3F)c(=O)c(C(=O)O)cn4C3CC3)CC2)c(=O)c2cc3c(cc21)OCO3`, in the assay with Salmonella typhimurium, the MIC is 7.6 µM (≈ 4.8 µg/mL).
In the case of `O=C(O)c1cn(C2CC2)c2cc(N3CCNCC3)c(F)cc2c1=O` [CIPROFLOXACIN], the MIC against Staphylococcus aureus turned out to be 74.6 µM (≈ 24.7 µg/mL); against Streptococcus pyogenes, 2390 µM (≈ 793 µg/mL); with Salmonella typhimurium it was 9.2 µM (≈ 3.05 µg/mL); with Pseudomonas aeruginosa it was 74.6 µM (≈ 24.7 µg/mL).
As to `CCn1cc(C(=O)O)c(=O)c2cc(F)c(N3CCN(C(=O)CCCNC(=O)c4cn(CC)c5nc(C)ccc5c4=O)CC3)cc21`, the MIC was found to be 505 µM (≈ 312 µg/mL) against Staphylococcus aureus, 1010 µM (≈ 625 µg/mL) against Streptococcus pyogenes, 505 µM (≈ 312 µg/mL) against Salmonella typhimurium and 505 µM (≈ 312 µg/mL) with Pseudomonas aeruginosa.
`CCn1cc(C(=O)O)c(=O)c2ccc(C)nc21` [NALIDIXIC ACID]: the MIC stood at 3770 µM (≈ 876 µg/mL) with Staphylococcus aureus, 3770 µM (≈ 876 µg/mL) against Streptococcus pyogenes, 7.2 µM (≈ 1.67 µg/mL) with Salmonella typhimurium and 14.5 µM (≈ 3.37 µg/mL) in the assay with Pseudomonas aeruginosa.
With `CCn1cc(C(=O)N[C@@H](Cc2ccccc2)C(=O)N2CCN(c3cc4c(cc3F)c(=O)c(C(=O)O)cn4C3CC3)CC2)c(=O)c2cc3c(cc21)OCO3`, the MIC was found to be 1730 µM (≈ 1250 µg/mL) in the assay with Staphylococcus aureus, 1730 µM (≈ 1250 µg/mL) in the assay on Streptococcus pyogenes, 433 µM (≈ 313 µg/mL) against Salmonella typhimurium and 1730 µM (≈ 1250 µg/mL) against Pseudomonas aeruginosa.
For the compound `CCn1cc(C(=O)NCCCC(=O)N2CCN(c3cc4c(cc3F)c(=O)c(C(=O)O)cn4C3CC3)CC2)c(=O)c2cc3c(cc21)OCO3`, the minimum inhibitory concentration (MIC) turned out to be 1890 µM (≈ 1250 µg/mL) against Staphylococcus aureus, 1890 µM (≈ 1250 µg/mL) in the assay on Streptococcus pyogenes, 59.1 µM (≈ 39 µg/mL) in the assay on Salmonella typhimurium and 1890 µM (≈ 1250 µg/mL) against Pseudomonas aeruginosa.
Turning to `CC[C@H](C)[C@H](NC(=O)c1cn(CC)c2cc3c(cc2c1=O)OCO3)C(=O)N1CCN(c2cc3c(cc2F)c(=O)c(C(=O)O)cn3C2CC2)CC1`, the MIC against Staphylococcus aureus came to 454 µM (≈ 313 µg/mL); in the assay on Streptococcus pyogenes, 1820 µM (≈ 1250 µg/mL); against Salmonella typhimurium it was 909 µM (≈ 625 µg/mL); in the assay with Pseudomonas aeruginosa, 1820 µM (≈ 1250 µg/mL).
Regarding `CCn1cc(C(=O)O)c(=O)c2cc(F)c(N3CCNCC3)cc21` [NORFLOXACIN], the MIC against Staphylococcus aureus is 1350 µM (≈ 430 µg/mL); in the assay on Streptococcus pyogenes it was 1350 µM (≈ 430 µg/mL); against Salmonella typhimurium, 10.3 µM (≈ 3.29 µg/mL); against Pseudomonas aeruginosa, 336 µM (≈ 107 µg/mL).
With `CCn1cc(C(=O)O)c(=O)c2cc(F)c(N3CCN(C(=O)[C@H](Cc4c[nH]c5ccccc45)NC(=O)c4cn(CC)c5nc(C)ccc5c4=O)CC3)cc21`, the MIC turned out to be 1740 µM (≈ 1250 µg/mL) against Staphylococcus aureus, 1740 µM (≈ 1250 µg/mL) with Streptococcus pyogenes, 868 µM (≈ 625 µg/mL) with Salmonella typhimurium and 1740 µM (≈ 1250 µg/mL) in the assay on Pseudomonas aeruginosa.
`CCn1cc(C(=O)O)c(=O)c2cc(F)c(N3CCN(C(=O)CNC(=O)c4cn(CC)c5nc(C)ccc5c4=O)CC3)cc21`: the MIC came to 33 µM (≈ 19.5 µg/mL) in the assay with Staphylococcus aureus and 2120 µM (≈ 1250 µg/mL) with Salmonella typhimurium.
On to `CCn1cc(C(=O)O)c(=O)c2cc(F)c(N3CCN(C(=O)[C@H](Cc4c[nH]c5ccccc45)NC(=O)c4cn(CC)c5cc6c(cc5c4=O)OCO6)CC3)cc21`, for which the MIC with Staphylococcus aureus, against Streptococcus pyogenes, in the assay on Salmonella typhimurium and in the assay with Pseudomonas aeruginosa was 1670 µM (≈ 1250 µg/mL) in each case.
In the case of `CCn1cc(C(=O)O)c(=O)c2cc(F)c(N3CCN(C(=O)[C@H](Cc4ccccc4)NC(=O)c4cn(CC)c5cc6c(cc5c4=O)OCO6)CC3)cc21`, the MIC in the assay on Staphylococcus aureus, in the assay on Streptococcus pyogenes, in the assay on Salmonella typhimurium and against Pseudomonas aeruginosa was 1760 µM (≈ 1250 µg/mL) each time.
Regarding `CCn1cc(C(=O)NCCC(=O)N2CCN(c3cc4c(cc3F)c(=O)c(C(=O)O)cn4C3CC3)CC2)c(=O)c2cc3c(cc21)OCO3`, the MIC is 1940 µM (≈ 1250 µg/mL) in the assay with Staphylococcus aureus, 1940 µM (≈ 1250 µg/mL) in the assay with Streptococcus pyogenes, 7.4 µM (≈ 4.78 µg/mL) in the assay on Salmonella typhimurium and 1940 µM (≈ 1250 µg/mL) in the assay on Pseudomonas aeruginosa.
Turning to `CCn1cc(C(=O)O)c(=O)c2cc(F)c(N3CCN(C(=O)CCCNC(=O)c4cn(CC)c5cc6c(cc5c4=O)OCO6)CC3)cc21`, the MIC against Staphylococcus aureus is 482 µM (≈ 312 µg/mL); in the assay on Streptococcus pyogenes it was 965 µM (≈ 625 µg/mL).
On to `CCn1cc(C(=O)O)c(=O)c2cc(F)c(N3CCN(C(=O)CCNC(=O)c4cn(CC)c5nc(C)ccc5c4=O)CC3)cc21`, for which the MIC in the assay on Staphylococcus aureus, in the assay with Streptococcus pyogenes, against Salmonella typhimurium and against Pseudomonas aeruginosa was 2070 µM (≈ 1250 µg/mL) in each case.
For `CCn1cc(C(=O)O)c(=O)c2cc(F)c(N3CCN(C(=O)CCNC(=O)c4cn(CC)c5cc6c(cc5c4=O)OCO6)CC3)cc21`, the minimum inhibitory concentration (MIC) with Staphylococcus aureus was 30.8 µM (≈ 19.5 µg/mL); in the assay on Streptococcus pyogenes, 247 µM (≈ 156 µg/mL); with Salmonella typhimurium, 61.6 µM (≈ 39 µg/mL); with Pseudomonas aeruginosa, 493 µM (≈ 313 µg/mL).
The matching figures for `CCn1cc(C(=O)N[C@@H](Cc2c[nH]c3ccccc23)C(=O)N2CCN(c3cc4c(cc3F)c(=O)c(C(=O)O)cn4C3CC3)CC2)c(=O)c2ccc(C)nc21`: 3.3 µM (≈ 2.41 µg/mL), 854 µM (≈ 625 µg/mL), 427 µM (≈ 312 µg/mL) and 1710 µM (≈ 1250 µg/mL).
In the assay on Salmonella typhimurium, `CCn1cc(C(=O)NCC(=O)N2CCN(c3cc4c(cc3F)c(=O)c(C(=O)O)cn4C3CC3)CC2)c(=O)c2ccc(C)nc21` returned an MIC of 64.7 µM (≈ 39 µg/mL).
With `CCn1cc(C(=O)NCCC(=O)N2CCN(c3cc4c(cc3F)c(=O)c(C(=O)O)cn4C3CC3)CC2)c(=O)c2ccc(C)nc21`, the MIC in the assay on Staphylococcus aureus turned out to be 1010 µM (≈ 625 µg/mL); with Streptococcus pyogenes, 7.8 µM (≈ 4.81 µg/mL); in the assay on Salmonella typhimurium, 15.7 µM (≈ 9.68 µg/mL); in the assay on Pseudomonas aeruginosa, 2030 µM (≈ 1250 µg/mL).
